Assay results published in patent US6872690B2, “Herbicidal 2-alkynyl-pyri (mi) dines” (WYETH, priority 2001, dated 2005).

Tests used:
Type in all cases: in vivo
[1] = system: Matricaria inodora; assay: Post-emergence herbicidal activity test; settings: 2-4 weeks after treatment
Method: (§1) To evaluate their herbicidal activity, compounds according to the invention are tested using a representative range of plants:
(§2) These acetone solutions are diluted with water and the resulting formulations applied at dosage levels equivalent of about 0.025 to 0. 4 kg per hectare of test compound per pot. After spraying the plants are placed on greenhouse benches and are cared for in the usual manner, commensurate with conventional greenhouse practices. From 2 to 4 weeks after treatment, the seedling plants are examined and rated according to the rating system provided above.

[2] = system: Galium aparine; assay: Post-emergence herbicidal activity test; settings: 2-4 weeks after treatment
Method: as §1, §2

[3] = system: Triticum aestivum; assay: Post-emergence herbicidal activity test; settings: 2-4 weeks after treatment
Method: as §1, §2

[4] = system: Setaria viridis; assay: Post-emergence herbicidal activity test; settings: 2-4 weeks after treatment
Method: as §1, §2

[5] = system: Cassia obtusifolia; assay: Post-emergence herbicidal activity test; settings: 2-4 weeks after treatment
Method: as §1, §2

[6] = system: Zea mays; assay: Post-emergence herbicidal activity test; settings: 2-4 weeks after treatment
Method: as §1, §2

[7] = system: Echinochloa crus-galli; assay: Post-emergence herbicidal activity test; settings: 2-4 weeks after treatment
Method: as §1, §2

[8] = system: Digitaria sanguinalis; assay: Post-emergence herbicidal activity test; settings: 2-4 weeks after treatment
Method: as §1, §2

[9] = system: Glycine max; assay: Post-emergence herbicidal activity test; settings: 2-4 weeks after treatment
Method: as §1, §2

[10] = system: Alopecurus myosuroides; assay: Post-emergence herbicidal activity test; settings: 2-4 weeks after treatment
Method: as §1, §2

[11] = system: Abutilon theophrasti; assay: Post-emergence herbicidal activity test; settings: 2-4 weeks after treatment
Method: as §1, §2

[12] = system: Ipomoea hederacea; assay: Post-emergence herbicidal activity test; settings: 2-4 weeks after treatment
Method: as §1, §2

[13] = system: Stellaria media; assay: Post-emergence herbicidal activity test; settings: 2-4 weeks after treatment
Method: as §1, §2

[14] = system: Orysa sativa; assay: Post-emergence herbicidal activity test; settings: 2-4 weeks after treatment
Method: as §1, §2

[15] = system: Matricaria inodora; assay: Pre-emergence test; settings: 3 weeks after treatment
Method: as §1
(§3) The pre-emergence tests involve spraying a liquid formulation of the compound onto the soil in which the seeds of the plant species mentioned above has recently been sown.
(§4) The soil used in the tests is a prepared horticultural loam. The formulations used in the tests are prepared from solutions of the test compounds in acetone containing 0.4% by weight of an alkyl-phenol/ethylene oxide condensate available under the trade mark TRITON X-155. These acetone solutions are diluted with water and the resulting formulations applied at dosage levels corresponding to 0.013 kg, 0.025 kg, 0.100 kg or 0.400 kg of active material per hectare in a volume equivalent to 900 litres per hectare. In these tests untreated sown soil are used as controls. From 2 to 4 weeks after treatment, the tests are terminated and each pot is examined and rated according to the rating system set forth below: […]

[16] = system: Galium aparine; assay: Pre-emergence test; settings: 3 weeks after treatment
Method: as §1, §3, §4

[17] = system: Triticum aestivum; assay: Pre-emergence test; settings: 3 weeks after treatment
Method: as §1, §3, §4

[18] = system: Setaria viridis; assay: Pre-emergence test; settings: 3 weeks after treatment
Method: as §1, §3, §4

[19] = system: Cassia obtusifolia; assay: Pre-emergence test; settings: 3 weeks after treatment
Method: as §1, §3, §4

[20] = system: Zea mays; assay: Pre-emergence test; settings: 3 weeks after treatment
Method: as §1, §3, §4

[21] = system: Echinochloa crus-galli; assay: Pre-emergence test; settings: 3 weeks after treatment
Method: as §1, §3, §4

[22] = system: Lamium purpureum; assay: Pre-emergence test; settings: 3 weeks after treatment
Method: as §1, §3, §4

[23] = system: Digitaria sanguinalis; assay: Pre-emergence test; settings: 3 weeks after treatment
Method: as §1, §3, §4

[24] = system: Glycine max; assay: Pre-emergence test; settings: 3 weeks after treatment
Method: as §1, §3, §4

[25] = system: Alopecurus myosuroides; assay: Pre-emergence test; settings: 3 weeks after treatment
Method: as §1, §3, §4

[26] = system: Abutilon theophrasti; assay: Pre-emergence test; settings: 3 weeks after treatment
Method: as §1, §3, §4

[27] = system: Ipomoea hederacea; assay: Pre-emergence test; settings: 3 weeks after treatment
Method: as §1, §3, §4

[28] = system: Stellaria media; assay: Pre-emergence test; settings: 3 weeks after treatment
Method: as §1, §3, §4

[29] = system: Orysa sativa; assay: Pre-emergence test; settings: 3 weeks after treatment
Method: as §1, §3, §4

Cc1cc(C#Cc2ccccc2)nc(Oc2cc(C(F)(F)F)nn2C)c1 [Example 1, 4-methyl-6-phenylethynyl-2-(1-methyl-3-trifluoromethylpyrazol-5-yloxy)pyridine]
Post-emergence application MATIN ([1]; 0.025 kg/ha): 4 (4-Injury) | Post-emergence application MATIN ([1]; 0.100 kg/ha): 5 (5-Definite injury) | Post-emergence application MATIN ([1]; 0.400 kg/ha): 6 (6-Herbicidal effect) | Post-emergence application GALAP ([2]; 0.025 kg/ha): 6 (6-Herbicidal effect) | Post-emergence application GALAP ([2]; 0.100 kg/ha): 6 (6-Herbicidal effect) | Post-emergence application GALAP ([2]; 0.400 kg/ha): 6 (6-Herbicidal effect) | Post-emergence application TRZWA ([3]; 0.025 kg/ha): 2 (2-Slight effect) | Post-emergence application TRZWA ([3]; 0.100 kg/ha): 3 (3-Moderate effect) | Post-emergence application TRZWA ([3]; 0.400 kg/ha): 3 (3-Moderate effect) | Post-emergence application SETVI ([4]; 0.025 kg/ha): 7 (7-Good herbicidal effect) | Post-emergence application SETVI ([4]; 0.100 kg/ha): 8 (8-Approaching complete kill) | Post-emergence application SETVI ([4]; 0.400 kg/ha): 8 (8-Approaching complete kill) | Post-emergence application CASOB ([5]; 0.025 kg/ha): 6 (6-Herbicidal effect) | Post-emergence application CASOB ([5]; 0.100 kg/ha): 7 (7-Good herbicidal effect) | Post-emergence application CASOB ([5]; 0.400 kg/ha): 7 (7-Good herbicidal effect) | Post-emergence application ZEAMX ([6]; 0.025 kg/ha): 2 (2-Slight effect) | Post-emergence application ZEAMX ([6]; 0.100 kg/ha): 4 (4-Injury) | Post-emergence application ZEAMX ([6]; 0.400 kg/ha): 5 (5-Definite injury) | Post-emergence application ECHCG ([7]; 0.025 kg/ha): 4 (4-Injury) | Post-emergence application ECHCG ([7]; 0.100 kg/ha): 7 (7-Good herbicidal effect) | Post-emergence application ECHCG ([7]; 0.400 kg/ha): 8 (8-Approaching complete kill) | Post-emergence application DIGSA ([8]; 0.025 kg/ha): 3 (3-Moderate effect) | Post-emergence application DIGSA ([8]; 0.100 kg/ha): 7 (7-Good herbicidal effect) | Post-emergence application DIGSA ([8]; 0.400 kg/ha): 7 (7-Good herbicidal effect) | Post-emergence application GLXMA ([9]; 0.025 kg/ha): 5 (5-Definite injury) | Post-emergence application GLXMA ([9]; 0.100 kg/ha): 6 (6-Herbicidal effect) | Post-emergence application GLXMA ([9]; 0.400 kg/ha): 6 (6-Herbicidal effect) | Post-emergence application ALOMY ([10]; 0.025 kg/ha): 4 (4-Injury) | Post-emergence application ALOMY ([10]; 0.100 kg/ha): 7 (7-Good herbicidal effect) | Post-emergence application ALOMY ([10]; 0.400 kg/ha): 8 (8-Approaching complete kill) | Post-emergence application ABUTH ([11]; 0.025 kg/ha): 4 (4-Injury) | Post-emergence application ABUTH ([11]; 0.100 kg/ha): 5 (5-Definite injury) | Post-emergence application ABUTH ([11]; 0.400 kg/ha): 6 (6-Herbicidal effect) | Post-emergence application IPOHE ([12]; 0.025 kg/ha): 6 (6-Herbicidal effect) | Post-emergence application IPOHE ([12]; 0.400 kg/ha): 8 (8-Approaching complete kill) | Post-emergence application STEME ([13]; 0.025 kg/ha): 5 (5-Definite injury) | Post-emergence application STEME ([13]; 0.100 kg/ha): 6 (6-Herbicidal effect) | Post-emergence application STEME ([13]; 0.400 kg/ha): 7 (7-Good herbicidal effect) | Post-emergence application ORYSA ([14]; 0.025 kg/ha): 2 (2-Slight effect) | Post-emergence application ORYSA ([14]; 0.100 kg/ha): 3 (3-Moderate effect) | Post-emergence application ORYSA ([14]; 0.400 kg/ha): 4 (4-Injury) | Assessment (pre-emergence application) MATIN ([15]; 0.013 kg/ha): 5 (5-Definite injury) | Assessment (pre-emergence application) MATIN ([15]; 0.025 kg/ha): 7 (7-Good herbicidal effect) | Assessment (pre-emergence application) MATIN ([15]; 0.100 kg/ha): 8 (8-Approaching complete kill) | Assessment (pre-emergence application) MATIN ([15]; 0.400 kg/ha): 8 (8-Approaching complete kill) | Assessment (pre-emergence application) GALAP ([16]; 0.013 kg/ha): 1 (1-Trace effect) | Assessment (pre-emergence application) GALAP ([16]; 0.025 kg/ha): 2 (2-Slight effect) | Assessment (pre-emergence application) GALAP ([16]; 0.100 kg/ha): 3 (3-Moderate effect) | Assessment (pre-emergence application) GALAP ([16]; 0.400 kg/ha): 7 (7-Good herbicidal effect) | Assessment (pre-emergence application) TRZWA ([17]; 0.013 kg/ha): 0 (0-No effect) | Assessment (pre-emergence application) TRZWA ([17]; 0.025 kg/ha): 0 (0-No effect) | Assessment (pre-emergence application) TRZWA ([17]; 0.100 kg/ha): 2 (2-Slight effect) | Assessment (pre-emergence application) TRZWA ([17]; 0.400 kg/ha): 3 (3-Moderate effect) | Assessment (pre-emergence application) SETVI ([18]; 0.013 kg/ha): 4 (4-Injury) | Assessment (pre-emergence application) SETVI ([18]; 0.025 kg/ha): 7 (7-Good herbicidal effect) | Assessment (pre-emergence application) SETVI ([18]; 0.100 kg/ha): 8 (8-Approaching complete kill) | Assessment (pre-emergence application) SETVI ([18]; 0.400 kg/ha): 9 (9-Complete kill) | Assessment (pre-emergence application) CASOB ([19]; 0.013 kg/ha): 1 (1-Trace effect) | Assessment (pre-emergence application) CASOB ([19]; 0.400 kg/ha): 8 (8-Approaching complete kill) | Assessment (pre-emergence application) ZEAMX ([20]; 0.013 kg/ha): 1 (1-Trace effect) | Assessment (pre-emergence application) ZEAMX ([20]; 0.025 kg/ha): 2 (2-Slight effect) | Assessment (pre-emergence application) ZEAMX ([20]; 0.100 kg/ha): 2 (2-Slight effect) | Assessment (pre-emergence application) ZEAMX ([20]; 0.400 kg/ha): 4 (4-Injury) | Assessment (pre-emergence application) ECHCG ([21]; 0.013 kg/ha): 1 (1-Trace effect) | Assessment (pre-emergence application) ECHCG ([21]; 0.025 kg/ha): 4 (4-Injury) | Assessment (pre-emergence application) ECHCG ([21]; 0.100 kg/ha): 5 (5-Definite injury) | Assessment (pre-emergence application) ECHCG ([21]; 0.400 kg/ha): 8 (8-Approaching complete kill) | Assessment (pre-emergence application) LAMPU ([22]; 0.013 kg/ha): 7 (7-Good herbicidal effect) | Assessment (pre-emergence application) LAMPU ([22]; 0.100 kg/ha): 8 (8-Approaching complete kill) | Assessment (pre-emergence application) LAMPU ([22]; 0.400 kg/ha): 8 (8-Approaching complete kill) | Assessment (pre-emergence application) DIGSA ([23]; 0.013 kg/ha): 5 (5-Definite injury) | Assessment (pre-emergence application) DIGSA ([23]; 0.025 kg/ha): 5 (5-Definite injury) | Assessment (pre-emergence application) DIGSA ([23]; 0.100 kg/ha): 9 (9-Complete kill) | Assessment (pre-emergence application) DIGSA ([23]; 0.400 kg/ha): 9 (9-Complete kill) | Assessment (pre-emergence application) GLXMA ([24]; 0.100 kg/ha): 3 (3-Moderate effect) | Assessment (pre-emergence application) GLXMA ([24]; 0.400 kg/ha): 4 (4-Injury) | Assessment (pre-emergence application) ALOMY ([25]; 0.013 kg/ha): 1 (1-Trace effect) | Assessment (pre-emergence application) ALOMY ([25]; 0.025 kg/ha): 2 (2-Slight effect) | Assessment (pre-emergence application) ALOMY ([25]; 0.100 kg/ha): 4 (4-Injury) | Assessment (pre-emergence application) ALOMY ([25]; 0.400 kg/ha): 8 (8-Approaching complete kill) | Assessment (pre-emergence application) ABUTH ([26]; 0.013 kg/ha): 4 (4-Injury) | Assessment (pre-emergence application) ABUTH ([26]; 0.100 kg/ha): 5 (5-Definite injury) | Assessment (pre-emergence application) ABUTH ([26]; 0.400 kg/ha): 9 (9-Complete kill) | Assessment (pre-emergence application) IPOHE ([27]; 0.013 kg/ha): 3 (3-Moderate effect) | Assessment (pre-emergence application) IPOHE ([27]; 0.100 kg/ha): 4 (4-Injury) | Assessment (pre-emergence application) IPOHE ([27]; 0.400 kg/ha): 9 (9-Complete kill) | Assessment (pre-emergence application) STEME ([28]; 0.013 kg/ha): 5 (5-Definite injury) | Assessment (pre-emergence application) STEME ([28]; 0.025 kg/ha): 8 (8-Approaching complete kill) | Assessment (pre-emergence application) STEME ([28]; 0.100 kg/ha): 9 (9-Complete kill) | Assessment (pre-emergence application) STEME ([28]; 0.400 kg/ha): 9 (9-Complete kill) | Assessment (pre-emergence application) ORYSA ([29]; 0.013 kg/ha): 1 (1-Trace effect) | Assessment (pre-emergence application) ORYSA ([29]; 0.025 kg/ha): 2 (2-Slight effect) | Assessment (pre-emergence application) ORYSA ([29]; 0.100 kg/ha): 3 (3-Moderate effect) | Assessment (pre-emergence application) ORYSA ([29]; 0.400 kg/ha): 5 (5-Definite injury)
